Experiment in all cases: Bliss interaction score (quartile over a dose matrix) (fitness difference); higher = more antagonism (negative = synergy)
One experiment concerns S. aureus Newman. Put shortly: (§1)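 Growth in each well was taken as OD595 at entry into stationary phase. Dividing by the plate's robust no-drug mean and capping at 1 gave fitness, and single-drug fitness was inferred from the combination data. The Bliss score, observed minus product-expected fitness, is summarised by quartiles over technical, biological and donor/recipient replicates.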

In another experiment the test system is S. pneumoniae D39V. Put shortly:
as §1

The next experiment relates to B. subtilis 168. The procedure, abridged:
as §1

The next experiment concerns S. aureus DSM 20231. The procedure, abridged: as §1

Molecules are shown by their SMILES.
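Note: first quartile when negative (synergy) and third quartile when positive (antagonism).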

For `CC(=O)Oc1ccccc1C(=O)O` [Acetylsalicylicacid] + CN[C@@H]1[C@H](O[C@H]2[C@H](O[C@H]3[C@H](O)[C@@H](O)[C@H](N=C(N)N)[C@@H](O)[C@@H]3N=C(N)N)O[C@@H](C)[C@]2(O)C=O)O[C@@H](CO)[C@H](O)[C@H]1O [Streptomycin], the Bliss interaction score with S. aureus Newman was 0.0762; with S. pneumoniae D39V, -0.0479; with B. subtilis 168, 0.222; in the experiment on S. aureus DSM 20231, -0.0889.

In the case of `N#CC(C#N)=NNc1cccc(Cl)c1` [CCCP] + CN(C)[C@@H]1C(O)=C(C(N)=O)C(=O)[C@@]2(O)C(O)=C3C(=O)c4c(O)ccc(Cl)c4[C@@](C)(O)[C@H]3C[C@@H]12 [Clortetracycline], the Bliss interaction score with S. aureus Newman is 0.0865; in the experiment on S. pneumoniae D39V it was -0.0306; in the experiment on B. subtilis 168 it was -0.0685; with S. aureus DSM 20231 it was 0.0445.

For `CN(C)[C@@H]1C(O)=C(C(N)=O)C(=O)[C@@]2(O)C(O)=C3C(=O)c4c(O)ccc(Cl)c4[C@@](C)(O)[C@H]3C[C@@H]12` [Clortetracycline] + CC1(C)S[C@@H]2[C@H](NC(=O)Cc3ccccc3)C(=O)N2[C@H]1C(=O)O [PenicillinG], the Bliss interaction score was -0.0614 in the experiment on S. aureus Newman, -0.0336 in the experiment with S. pneumoniae D39V, 0.123 in the experiment with B. subtilis 168 and 0.0499 in the experiment on S. aureus DSM 20231.

With `COc1cccc2c1C(=O)c1c(O)c3c(c(O)c1C2=O)C[C@@](O)(C(=O)CO)C[C@@H]3O[C@H]1C[C@H](N)[C@H](O)[C@H](C)O1` [Doxorubicin] + Oc1cc(Cl)ccc1Oc1ccc(Cl)cc1Cl [Triclosan], the Bliss interaction score with S. aureus Newman was -0.0426; in the experiment on S. pneumoniae D39V, -0.0416; with B. subtilis 168, -0.0317; in the experiment on S. aureus DSM 20231, -0.0295.

Take `N#CC(C#N)=NNc1cccc(Cl)c1` [CCCP] + CCC[C@@H]1C[C@@H](C(=O)N[C@@H]([C@H]2O[C@H](SC)[C@H](O)[C@@H](O)[C@H]2O)[C@@H](C)O)N(C)C1 [Lincomycin]: the Bliss interaction score in the experiment with S. aureus Newman was 0.116; in the experiment with S. pneumoniae D39V, 0.0513; in the experiment with B. subtilis 168, -0.0311; in the experiment on S. aureus DSM 20231 it was -0.0627.

As for `CC(=O)Oc1ccccc1C(=O)O` [Acetylsalicylicacid] + CO/N=C(\C(=O)N[C@@H]1C(=O)N2C(C(=O)[O-])=C(C[N+]3(C)CCCC3)CS[C@H]12)c1csc(N)n1 [Cefepime], the Bliss interaction score was found to be 0.0506 in the experiment on S. aureus Newman, 0.118 in the experiment with S. pneumoniae D39V, 0.167 in the experiment with B. subtilis 168 and 0.097 in the experiment with S. aureus DSM 20231.

Consider `O=C(O)c1cn(C2CC2)c2cc(N3CCNCC3)c(F)cc2c1=O` [Ciprofloxacin] + CC(=O)O[C@H]1C[C@@]2(C)[C@@H](C[C@@H](O)[C@H]3[C@@]4(C)CC[C@@H](O)[C@@H](C)[C@@H]4CC[C@@]32C)/C1=C(\CCC=C(C)C)C(=O)O [Fusidic acid], for which the Bliss interaction score with S. aureus Newman worked out at 0.0831; with S. pneumoniae D39V, 0.0674; in the experiment with B. subtilis 168 it was 0.19; with S. aureus DSM 20231, 0.04.

As for `CN(C)[C@@H]1C(O)=C(C(N)=O)C(=O)[C@@]2(O)C(O)=C3C(=O)c4c(O)ccc(Cl)c4[C@@](C)(O)[C@H]3C[C@@H]12` [Clortetracycline] + C[n+]1ccc(-c2cc[n+](C)cc2)cc1 [Paraquat], the Bliss interaction score with S. aureus Newman is -0.0418; in the experiment on S. pneumoniae D39V, -0.026; in the experiment with B. subtilis 168, 0.0974; with S. aureus DSM 20231, 0.0363.

On to `CN(C)[C@@H]1C(O)=C(C(N)=O)C(=O)[C@@]2(O)C(O)=C3C(=O)c4c(O)ccc(Cl)c4[C@@](C)(O)[C@H]3C[C@@H]12` [Clortetracycline] + C[C@@H]1O[C@@H]1P(=O)(O)O [Fosfomycin], for which the Bliss interaction score in the experiment with S. aureus Newman was -0.161; with S. pneumoniae D39V, 0.0517; with B. subtilis 168, 0.0913; with S. aureus DSM 20231, -0.158.

For `CC(=O)Oc1ccccc1C(=O)O` [Acetylsalicylicacid] + O=C(N[C@H](CO)[C@H](O)c1ccc([N+](=O)[O-])cc1)C(Cl)Cl [Chloramphenicol], the Bliss interaction score in the experiment on S. aureus Newman is 0.0794; in the experiment on S. pneumoniae D39V it was 0.115; in the experiment on B. subtilis 168, 0.0772; with S. aureus DSM 20231, -0.0904.

As for `COc1cccc2c1C(=O)c1c(O)c3c(c(O)c1C2=O)C[C@@](O)(C(=O)CO)C[C@@H]3O[C@H]1C[C@H](N)[C@H](O)[C@H](C)O1` [Doxorubicin] + CC(=O)O[C@H]1C[C@@]2(C)[C@@H](C[C@@H](O)[C@H]3[C@@]4(C)CC[C@@H](O)[C@@H](C)[C@@H]4CC[C@@]32C)/C1=C(\CCC=C(C)C)C(=O)O [Fusidic acid], the Bliss interaction score in the experiment on S. aureus Newman was 0.0367; with S. pneumoniae D39V it was -0.0805; in the experiment on B. subtilis 168, 0.0613; in the experiment with S. aureus DSM 20231, -0.0285.

With `O=C(O)c1cn(C2CC2)c2cc(N3CCNCC3)c(F)cc2c1=O` [Ciprofloxacin] + O=C(O)[C@H]1/C(=C/CO)O[C@@H]2CC(=O)N21 [Clavulanic], the Bliss interaction score was 0.18 with S. aureus Newman, -0.0997 in the experiment on S. pneumoniae D39V, -0.154 in the experiment with B. subtilis 168 and -0.184 with S. aureus DSM 20231.

`N#CC(C#N)=NNc1cccc(Cl)c1` [CCCP] + CC1=C\[C@@H](O)CC(=O)Cc2nc(co2)C(=O)N2CCC=C2C(=O)O[C@H](C(C)C)[C@H](C)/C=C/C(=O)NC\C=C\1 [Virginiamycin M1]: the Bliss interaction score in the experiment with S. aureus Newman was -0.0388; with S. pneumoniae D39V it was 0.0981; in the experiment with B. subtilis 168 it was -0.0262; in the experiment on S. aureus DSM 20231 it was 0.0407.

As for `COc1cccc2c1C(=O)c1c(O)c3c(c(O)c1C2=O)C[C@@](O)(C(=O)CO)C[C@@H]3O[C@H]1C[C@H](N)[C@H](O)[C@H](C)O1` [Doxorubicin] + CC[C@H]1OC(=O)[C@H](C)C(=O)[C@H](C)[C@@H](O[C@@H]2O[C@H](C)C[C@H](N(C)C)[C@H]2O)[C@](C)(OC)C[C@@H](C)C(=O)[C@H](C)[C@H]2N(CCCCn3cnc(-c4cccnc4)c3)C(=O)O[C@]12C [Telithromycin], the Bliss interaction score is 0.0489 in the experiment on S. aureus Newman, -0.0361 with S. pneumoniae D39V, 0.0872 with B. subtilis 168 and -0.0292 in the experiment on S. aureus DSM 20231.

For the molecule `CC(=O)Oc1ccccc1C(=O)O` [Acetylsalicylicacid] + COc1cc(Cc2cnc(N)nc2N)cc(OC)c1OC [Trimethoprim], the Bliss interaction score with S. aureus Newman was 0.0981; in the experiment on S. pneumoniae D39V, -0.163; in the experiment with B. subtilis 168, 0.123; with S. aureus DSM 20231 it was -0.0672.

`C[C@H]1c2cccc(O)c2C(=O)C2=C(O)[C@]3(O)C(=O)C(C(N)=O)=C(O)[C@@H](N(C)C)[C@@H]3[C@@H](O)[C@@H]21` [Doxycycline] + CC(=O)O[C@H]1C[C@@]2(C)[C@@H](C[C@@H](O)[C@H]3[C@@]4(C)CC[C@@H](O)[C@@H](C)[C@@H]4CC[C@@]32C)/C1=C(\CCC=C(C)C)C(=O)O [Fusidic acid]: the Bliss interaction score in the experiment with S. aureus Newman is 0.0131; with S. pneumoniae D39V, -0.0559; in the experiment on B. subtilis 168, -0.049; in the experiment with S. aureus DSM 20231, -0.0196.

Consider `CC1(C)S[C@@H]2[C@H](NC(=O)Cc3ccccc3)C(=O)N2[C@H]1C(=O)O` [PenicillinG] + CN[C@@H]1[C@H](O[C@H]2[C@H](O[C@H]3[C@H](O)[C@@H](O)[C@H](N=C(N)N)[C@@H](O)[C@@H]3N=C(N)N)O[C@@H](C)[C@]2(O)C=O)O[C@@H](CO)[C@H](O)[C@H]1O [Streptomycin], for which the Bliss interaction score was -0.0403 in the experiment with S. aureus Newman, -0.119 in the experiment with S. pneumoniae D39V, 0.0319 in the experiment on B. subtilis 168 and -0.0333 in the experiment with S. aureus DSM 20231.

As for `CO/N=C(\C(=O)N[C@@H]1C(=O)N2C(C(=O)O)=C(COC(N)=O)CS[C@H]12)c1ccco1` [Cefuroxime] + Clc1ccc(COC(Cn2ccnc2)c2ccc(Cl)cc2Cl)c(Cl)c1 [Miconazole], the Bliss interaction score in the experiment with S. aureus Newman was 0.025; with S. pneumoniae D39V, 0.0717; with B. subtilis 168 it was 0.0653; in the experiment with S. aureus DSM 20231 it was 0.112.

Regarding `C[C@@H]1O[C@@H]1P(=O)(O)O` [Fosfomycin] + CC1(C)S[C@@H]2[C@H](NC(=O)Cc3ccccc3)C(=O)N2[C@H]1C(=O)O [PenicillinG], the Bliss interaction score in the experiment with S. aureus Newman is 0.0465; in the experiment on S. pneumoniae D39V, -0.0713; in the experiment with B. subtilis 168, -0.0401; in the experiment with S. aureus DSM 20231 it was -0.136.

Values taken from the supplement of paper PMC10627819.
